# Measurements reported in patent publication US20230247994A1, “HETEROCYCLENE DERIVATIVES AS PEST CONTROL AGENTS” (Bayer Aktiengesellschaft, priority 2020, published 2023).
# Key:
# Assay type in all cases: in vivo
# [1] = system: Nezara viridula; assay: Nezara viridula spray test (barley plants); conditions: 96 h, application rate 500 g/ha, larvae, after 4 days, 100% = all shield bugs killed, read-out: efficacy in %
# From the text: Nezara viridula—Spray Test Solvent: 78.0 parts by weight of acetone • • 1.5 parts by weight of dimethylformamide Emulsifier: alkylaryl polyglycol ether An appropriate active ingredient formulation is produced by dissolving 1 part by weight of active ingredient with the stated parts by weight of solvent and making the solution up to the desired concentration with water containing an emulsifier concentration of 1000 ppm. Further test concentrations are produced by diluting the formulation with emulsifier-containing water. Barley plants (Hordeum vulgare) are sprayed with an active ingredient formulation of the desired concentration and are infected with larvae of the Southern green shield bug (Nezara viridula). After 4 days, efficacy in % is determined. 100% means that all of the shield bugs have been killed; 0% means that none of the shield bugs have been killed.
# [2] = system: Spodoptera frugiperda; assay: Spodoptera frugiperda spray test (maize leaf disks); conditions: foliar, 168 h, application rate 100 g/ha, caterpillars, after 7 days, 100% = all caterpillars killed, read-out: efficacy in %
# From the text: Spodoptera frugiuerda—Spray Test
# Solvent: 78.0 parts by weight of acetone • • 1.5 parts by weight of dimethylformamide
# Emulsifier: alkylaryl polyglycol ether
# An appropriate active ingredient formulation is produced by dissolving 1 part by weight of active ingredient with the stated parts by weight of solvent and making the solution up to the desired concentration with water containing an emulsifier concentration of 1000 ppm. Further test concentrations are produced by diluting the formulation with emulsifier-containing water.
# Leaf disks of maize (Zea mays) are sprayed with an active ingredient formulation of the desired concentration and, after drying, populated with caterpillars of the fall armyworm (Spodopterafrugiperda).
# After 7 days, efficacy in % is determined. 100% means that all of the caterpillars have been killed; 0% means that none of the caterpillars have been killed.
# [3] = system: Diabrotica balteata; assay: Diabrotica balteata spray test (germinated wheat grains); conditions: 168 h, application rate 100 g/ha (=32 μg/cavity), after 7 days, beetle larvae on wheat, 100% = all wheat plants grown as in untreated, uninfected control, read-out: efficacy in %
# From the text: Diabrotica Balteata—Spray Test Solvent: 78 parts by weight of acetone • • 1.5 parts by weight of dimethylformamide Emulsifier: alkylaryl polyglycol ether An appropriate active ingredient formulation is produced by dissolving 1 part by weight of active ingredient with the stated parts by weight of solvent and making the solution up to the desired concentration with water containing an emulsifier concentration of 1000 ppm. Further test concentrations are produced by diluting the formulation with emulsifier-containing water. Pre-swollen wheat grains (Triticum aestivum) are incubated in a multiwell plate filled with agar and a little water for one day (5 seed grains per cavity). The germinated wheat grains are sprayed with an active ingredient formulation of the desired concentration. Subsequently, each cavity is infected with 10-20 beetle larvae of Diabrotica balteata. After 7 days, efficacy in % is determined. 100% means that all wheat plants have grown as in the untreated, uninfected control; 0% means that no wheat plant has grown.
SMILES,pest or weed control at 500 g/ha [1],pest or weed control at 100 g/ha [2],pest or weed control at 100 g/ha [3]
"CCS(=O)(=O)c1c(-c2nc3cc4c(cc3n2C)OC(F)(F)C(F)(F)O4)nc(-c2ccc(Cl)s2)n1C [Example I-19, 2-[2-(5-Chloro-2-thienyl)-5-(ethylsulfonyl)-1-methyl-1H-imidazol-4-yl]-6,6,7,7-tetrafluoro-1-methyl-6,7-dihydro-1H-[1,4]dioxino[2,3-f]benzimidazole]",100%,100%,–
"CCS(=O)(=O)c1c(-c2nc3cc4c(cc3n2C)OC(F)(F)C(F)(F)O4)nc(-c2ccc(C(F)(F)F)cc2)n1C [Example I-15, 2-{5-(Ethylsulfonyl)-1-methyl-2-[4-(trifluoromethyl)phenyl]-1H-imidazol-4-yl}-6,6,7,7-tetrafluoro-1-methyl-6,7-dihydro-1H-[1,4]dioxino[2,3-f]benzimidazole]",100%,100%,100%
"CCS(=O)(=O)c1c(-c2nc3cc4c(cc3[nH]2)OC(F)(F)C(F)(F)O4)nc(Br)n1C [Example I-2, 2-[2-Bromo-5-(ethylsulfonyl)-1-methyl-1H-imidazol-4-yl]-6,6,7,7-tetrafluoro-6,7-dihydro-1H-[1,4]dioxino[2,3-f]benzimidazole]",–,100%,100%
CCS(=O)(=O)c1c(-c2nc3cc4c(cc3n2C)OC(F)(F)C(F)(F)O4)nc(-c2cccc(C3(C#N)CC3)c2)n1C [Example I-36],90%,100%,100%
"CCS(=O)(=O)c1c(-c2nc3cc4c(cc3n2C)OC(F)(F)C(F)(F)O4)nc(-c2ccc(F)cc2)n1C [Example I-5, 2-[5-(Ethylsulfonyl)-2-(4-fluorophenyl)-1-methyl-1H-imidazol-4-yl]-6,6,7,7-tetrafluoro-1-methyl-6,7-dihydro-1H-[1,4]dioxino[2,3-f]benzimidazole]",–,100%,100%
"CCS(=O)(=O)c1c(-c2nc3cc4c(cc3n2C)OC(F)(F)C(F)(F)O4)nc(-c2ccc(Cl)cn2)n1C [Example I-31, 2-[2-(5-Chloropyridin-2-yl)-5-(ethylsulfonyl)-1-methyl-1H-imidazol-4-yl]-6,6,7,7-tetrafluoro-1-methyl-6,7-dihydro-1H-[1,4]dioxino[2,3-f]benzimidazole]",–,100%,–
"CCS(=O)(=O)c1c(-c2nc3cc4c(cc3n2C)OC(F)(F)C(F)(F)O4)nc(-c2cccc(C3(F)CC3)c2)n1C [Example I-20, 2-{5-(Ethylsulfonyl)-2-[3-(1-fluorocyclopropyl)phenyl]-1-methyl-1H-imidazol-4-yl}-6,6,7,7-tetrafluoro-1-methyl-6,7-dihydro-1H-[1,4]dioxino[2,3-f]benzimidazole]",90%,100%,100%
CCS(=O)(=O)c1c(-c2nc3cc4c(cc3n2C)OC(F)(F)C(F)(F)O4)nc(-c2ccc(-c3ccc(Br)cn3)cn2)n1C [Example I-25],–,100%,–
"CCS(=O)(=O)c1c(-c2nc3cc4c(cc3n2C)OC(F)(F)C(F)(F)O4)nc(-c2ccc(Br)cn2)n1C [Example I-24, 2-[2-(5-Bromopyridin-2-yl)-5-(ethylsulfonyl)-1-methyl-1H-imidazol-4-yl]-6,6,7,7-tetrafluoro-1-methyl-6,7-dihydro-1H-[1,4]dioxino[2,3-f]benzimidazole]",100%,100%,100%
"CCS(=O)(=O)c1c(-c2nc3cc4c(cc3n2C)OC(F)(F)C(F)(F)O4)nc(-c2ccc(C3CC3)nc2)n1C [Example I-18, 2-[2-(6-Cyclopropylpyridin-3-yl)-5-(ethylsulfonyl)-1-methyl-1H-imidazol-4-yl]-6,6,7,7-tetrafluoro-1-methyl-6,7-dihydro-1H-[1,4]dioxino[2,3-f]benzimidazole]",100%,100%,100%
"CCS(=O)(=O)c1c(-c2nc3cc4c(cc3n2C)OC(F)(F)C(F)(F)O4)nc(-c2ccc(C3(F)CC3)cc2)n1C [Example I-11, 2-{5-(Ethylsulfonyl)-2-[4-(1-fluorocyclopropyl)phenyl]-1-methyl-1H-imidazol-4-yl}-6,6,7,7-tetrafluoro-1-methyl-6,7-dihydro-1H-[1,4]dioxino[2,3-f]benzimidazole]",100%,100%,100%
CCS(=N)(=O)c1c(-c2nc3cc4c(cc3n2C)OC(F)(F)C(F)(F)O4)nc(-c2ccc(C3(C#N)CC3)cc2)n1C (stereo not shown) [Example I-39],–,100%,–
"CCS(=O)(=O)c1c(-c2nc3cc4c(cc3n2C)OC(F)(F)C(F)(F)O4)nc(-c2ccc(C#N)cn2)n1C [Example I-32, 6-[5-(Ethylsulfonyl)-1-methyl-4-(6,6,7,7-tetrafluoro-1-methyl-6,7-dihydro-1H-[1,4]dioxino[2,3-f]benzimidazol-2-yl)-1H-imidazol-2-yl]nicotinonitrile]",–,100%,100%
"CCS(=O)(=O)c1c(-c2nc3cc4c(cc3n2C)OC(F)(F)C(F)(F)O4)nc(-c2cccc(F)c2)n1C [Example I-14, 2-[5-(Ethylsulfonyl)-2-(3-fluorophenyl)-1-methyl-1H-imidazol-4-yl]-6,6,7,7-tetrafluoro-1-methyl-6,7-dihydro-1H-[1,4]dioxino[2,3-f]benzimidazole]",90%,100%,100%
"CCS(=O)(=O)c1c(-c2nc3cc4c(cc3n2C)OC(F)(F)C(F)(F)O4)nc(-c2cccc(Cl)c2)n1C [Example I-13, 2-[2-(3-Chlorophenyl)-5-(ethylsulfonyl)-1-methyl-1H-imidazol-4-yl]-6,6,7,7-tetrafluoro-1-methyl-6,7-dihydro-1H-[1,4]dioxino[2,3-f]benzimidazole]",–,100%,100%
"CCS(=O)(=O)c1c(-c2nc3cc4c(cc3n2C)OC(F)(F)C(F)(F)O4)nc(-c2ccc(Br)cc2)n1C [Example I-10, 2-[2-(4-Bromophenyl)-5-(ethylsulfonyl)-1-methyl-1H-imidazol-4-yl]-6,6,7,7-tetrafluoro-1-methyl-6,7-dihydro-1H-[1,4]dioxino[2,3-f]benzimidazole]",100%,100%,100%
"CCS(=O)(=O)c1c(-c2nc3cc4c(cc3n2C)OC(F)(F)C(F)(F)O4)nc(-n2cnc(C3CC3)n2)n1C [Example I-23, 2-[2-(3-Cyclopropyl-1H-1,2,4-triazol-1-yl)-5-(ethylsulfonyl)-1-methyl-1H-imidazol-4-yl]-6,6,7,7-tetrafluoro-1-methyl-6,7-dihydro-1H-[1,4]dioxino[2,3-f]benzimidazole]",100%,100%,80%
"CCS(=O)(=O)c1c(-c2nc3cc4c(cc3n2C)OC(F)(F)C(F)(F)O4)nc(-c2cccc(Br)c2)n1C [Example I-12, 2-[2-(3-Bromophenyl)-5-(ethylsulfonyl)-1-methyl-1H-imidazol-4-yl]-6,6,7,7-tetrafluoro-1-methyl-6,7-dihydro-1H-[1,4]dioxino[2,3-f]benzimidazole]",–,100%,100%
"CCS(=O)(=O)c1c(-c2nc3cc4c(cc3n2C)OC(F)(F)C(F)(F)O4)nc(-c2ccc(C3(C(F)(F)F)CC3)cc2)n1C [Example I-7, 2-[5-(Ethylsulfonyl)-1-methyl-2-{4-[1-(trifluoromethyl)cyclopropyl]phenyl}-1H-imidazol-4-yl]-6,6,7,7-tetrafluoro-1-methyl-6,7-dihydro-1H-[1,4]dioxino[2,3-f]benzimidazole]",–,–,100%
